Experimental data from US7893045B2, “Methods for treating lymphomas in certain patient populations and screening patients for said therapy” (Celgene Corporation, priority 2007, dated 2011).

What was measured:
[1] = tested on: peripheral T-cell lymphomas (PTCL); experiment: Clinical Study 3: Phase II lenalidomide for peripheral T-cell lymphomas; format: in vivo; conditions: about 25 mg orally daily for 21 days followed by 7 days of rest; ten patients
Experimental: A multi-center, open label, phase II study was conducted to evaluate the efficacy of 3-(4-amino-1-oxo-1,3-dihydro-isoindol-2-yl)-piperidin-2,6-dione (lenalidomide) for peripheral T-cell lymphomas (PTCL). Patients with relapsed or refractory disease were eligible, as well as patients who had not previously had systemic therapy but who were ineligible for standard curative chemotherapy regimens due to comorbid illness. Each cycle (28 days) of treatment comprises administration of about 25 mg of 3-(4-amino-1-oxo-1,3-dihydro-isoindol-2-yl)-piperidin-2,6-dione (lenalidomide) given orally daily for 21 days followed by 7 days of rest, until disease progression, death or unacceptable toxicity.
Ten (9 males and 1 female) patients were enrolled. Median age of participants was 56 years (range, 42-76 years). Histologies of the patients included PTCL unspecified (n=4), angioimmunoblastic T-cell lymphoma (n=4), anaplastic large cell lymphoma (n=1), and gamma/delta T-cell lymphoma (n=1). Median number of prior lines of systemic therapy was one (range, 0-3). Median number of cycles was two (range, 1-8).

[2] = tested on: relapsed and refractory aggressive non-Hodgkin's lymphoma (NHL); experiment: Clinical Study 1: Phase II oral lenalidomide monotherapy in relapsed and refractory aggressive NHL; format: in vivo, human; conditions: for Median progression-free survival: FIG. 1
Experimental: A multi-center, open-label, Phase II study was conducted in patients with relapsed and refractory aggressive non-Hodgkin's lymphoma (NHL). The trial was designed for oral monotherapy with 3-(4-amino-1-oxo-1,3-dihydro-isoindol-2-yl)-piperidin-2,6-dione (Revlimid® or lenalidomide) in 49 patients with relapsed and refractory aggressive NHL following one or more prior treatment regimen with measurable disease. Patients in the study received lenalidomide in an amount of 25 mg orally once daily for days one to 21 in a 28-day cycle and continued therapy for 52 weeks as tolerated or until disease progression. A patient who achieved a complete response during the 52 week period was to receive two additional cycles of treatment prior to discontinuing treatment and entering the follow-up phase.
The patients who had received a median of 4 prior treatments (range: 1-7 prior treatments), were administered with lenalidomide in an amount of 25 mg orally once daily for 21 days in the treatment cycle of 28 days. Of the 49 patients, 26 had diffuse large cell lymphoma, 15 had mantle cell lymphoma, five patients had follicular lymphoma, and three had transformed lymphoma. Median time from diagnosis was 2.7 years (range 0.4-32) and patients had received a median of 4 (range […]) prior drug regimens for NHL. Ninety-three percent of the patients had received prior rituximab and 63% of the patients were rituximab refractory.

aggressive NHL [3] = experiment: Study 1 and 2 taken together: response by predictive factors; format: in vivo, human
aggressive NHL [4] = experiment: Clinical Study 2: lenalidomide monotherapy in aggressive NHL; format: in vivo, human
Experimental: In a separate clinical study, 86 patients received at least 25 mg of lenalidomide once daily on Days 1-21 every 28 days and continued therapy as tolerated or until disease progression. Forty-eight of these patients were evaluable for response assessment (Table 3). The median age was 65 years. The most common histology was DLBCL (63%). The median time from diagnosis to lenalidomide treatment was 2 years. Patients received a median of 4 prior treatment regimens for NHL. Median time from last rituximab treatment was 297 days. […] Ninety-six percent of the patients had received prior rituximab.

[5] = Aggressive, n=49, 25 mg orally once daily days 1-21 of 28-day cycle
[6] = DLBCL, n=26, 25 mg daily days 1-21 of 28
[7] = FCL, n=5, 25 mg daily days 1-21 of 28
[8] = MCL, n=15, 25 mg daily days 1-21 of 28
[9] = TSF, n=3, 25 mg daily days 1-21 of 28
[10] = of fourteen patients with SD at cycle 2
[11] = the four rituximab naïve patients
[12] = Study 1 and 2, time from rituximab <230 days, 40 patients
[13] = Study 1 and 2, time from rituximab ≧230 days, 57 patients
[14] = Study 1 and 2, tumor burden <50 cm^2, 66 patients
[15] = Study 1 and 2, tumor burden ≧50 cm^2, 29 patients
[16] = Aggressive NHL, 48 evaluable patients, at least 25 mg once daily Days 1-21 every 28 days
[17] = Diffuse large B-cell, 30 patients
[18] = Follicular center lymphoma grade 3, 1 patient
[19] = Mantle cell lymphoma, 14 patients
[20] = Transformed lymphoma, 3 patients

## Nc1cccc2c1CN(C1CCC(=O)NC1=O)C2=O (centres unmarked) [lenalidomide, 3-(4-amino-1-oxo-1,3-dihydro-isoindol-2-yl)-piperidine-2,6-dione]
[1]
  efficacy in peripheral T-cell lymphomas: effective in treating peripheral T-cell lymphomas
  tolerability of therapy: generally been well tolerated
[2]; <230 days since last rituximab therapy
  response to lenalidomide: 6%
[2]; >=230 days since last rituximab therapy
  response to lenalidomide: 52%
[2]; [5]
  CR, complete response (patients): 2
  CRu, complete response unconfirmed (patients): 4
  PD, progressive disease (patients): 21
  PR, partial response (patients): 11
  RR, response rate: 35%
[2]; DLBCL, diffuse large B-cell lymphoma, n=26, 25 mg daily days 1-21 of 28
  CR, complete response (patients): 1
[2]; [6]
  CRu, complete response unconfirmed (patients): 2
  PD, progressive disease (patients): 14
  PR, partial response (patients): 2
  RR, response rate: 19%
[2]; FCL, follicular-center lymphoma, n=5, 25 mg daily days 1-21 of 28
  CR, complete response (patients): 0
[2]; [7]
  CRu, complete response unconfirmed (patients): 1
  PD, progressive disease (patients): 2
  PR, partial response (patients): 2
  RR, response rate: 60%
[2]; MCL, mantle cell lymphoma, n=15, 25 mg daily days 1-21 of 28
  CR, complete response (patients): 1
[2]; [8]
  CRu, complete response unconfirmed (patients): 1
  PD, progressive disease (patients): 5
  PR, partial response (patients): 6
  RR, response rate: 53%
[2]; [9]
  CRu, complete response unconfirmed (patients): 0
  PD, progressive disease (patients): 0
  PR, partial response (patients): 1
  RR, response rate: 33%
[2]; TSF, transformed lymphoma, n=3, 25 mg daily days 1-21 of 28
  CR, complete response (patients): 0
[2]; absolute lymphocyte count <=0.6×10^9/L
  response to lenalidomide: 9%
[2]; absolute lymphocyte count >0.6×10^9/L
  response to lenalidomide: 42%
[2]; continued treatment
  patients with initial PR at 2 cycles who went on to CR/CRu with continued treatment: four
[2]; favorable values of disease burden, absolute lymphocyte count and time since last rituximab (n=23)
  Response Rate: 65%
[2]; first assessment, cycle 2
  patients with stable disease at the first (cycle 2) assessment: Fourteen
[2]; largest tumor lesion <=4.5 cm
  response to lenalidomide: 55%
[2]; largest tumor lesion >4.5 cm
  response to lenalidomide: 5%
[2]; of 28 patients
  patients with SD or PR at first assessment who improved their response with continued treatment: seven
  share of patients with SD or PR at first assessment who improved their response: 25%
[2]; of 49 patients
  patients with an objective response: Seventeen
[2]; [10]
  patients with SD at first assessment who went on to exhibit a response with continued treatment: three
  share of patients with SD at first assessment who went on to exhibit a response: 21%
[2]; patients not refractory to rituximab
  response to lenalidomide: 31%
[2]; patients refractory to rituximab
  response to lenalidomide: 30%
[2]; patients with favorable prognostic values
  Median progression-free survival: 7.5 months
[2]; patients with poor prognostic factors
  Median progression-free survival: 1.9 months
[2]; [11]
  patients with CR: two
  patients with PR: 1
  patients with SD: 1
[2]; tumor burden <50 cm^2
  response to lenalidomide: 52%
[2]; tumor burden >=50 cm^2
  response to lenalidomide: 0%
[2]; unfavorable values for these prognostic values (n=26)
  Response Rate: 8%
[2]; whole group (all patients), Kaplan-Meier
  Median progression-free survival: 3.7 months
Aggressive NHL [3]; Study 1 and 2, Favorable = tumor burden <50 cm^2 and time since last rituximab ≧230 days, 43 patients
  Responders: 26
Aggressive NHL [3]; Study 1 and 2, Favorable = tumor burden <50 cm^2 and time since last rituximab ≧230 days, N=43
  Response Rate (ORR): 60%
Aggressive NHL [3]; Study 1 and 2, Unfavorable = tumor burden ≧50 cm^2 and/or time since last rituximab <230 days, 54 patients
  Responders: 4
Aggressive NHL [3]; Study 1 and 2, Unfavorable = tumor burden ≧50 cm^2 and/or time since last rituximab <230 days, N=54
  Response Rate (ORR): 7.4%
Aggressive NHL [3]; [12]
  Responders: 2
  Response Rate: 5%
Aggressive NHL [3]; [13]
  Responders: 28
  Response Rate: 49%
Aggressive NHL [3]; [14]
  Responders: 28
  Response Rate: 42%
Aggressive NHL [3]; [15]
  Responders: 2
  Response Rate: 6.9%
Aggressive NHL [3]; Study 1 and 2 taken together
  duration of response: approximately 6 months
Aggressive NHL [3]; Study 1 and 2 taken together, all patients
  Response Rate: 31%
Aggressive NHL [3]; Study 1 and 2 taken together, monotherapy in aggressive NHL
  side effects: manageable hematological side effects
Aggressive NHL [4]; <230 days from rituximab to lenalidomide treatment
  response to lenalidomide: 5%
Aggressive NHL [4]; [16]
  ORR, overall response rate: 27%
  PD, progressive disease (patients): 25
  PR, partial response (patients): 12
Aggressive NHL [4]; [17]
  CR, complete response (patients): 1
  ORR, overall response rate: 20%
  PD, progressive disease (patients): 19
  PR, partial response (patients): 5
Aggressive NHL [4]; [18]
  CR, complete response (patients): 0
  ORR, overall response rate: 100%
  PD, progressive disease (patients): 0
  PR, partial response (patients): 1
Aggressive NHL [4]; [19]
  CR, complete response (patients): 0
  ORR, overall response rate: 36%
  PD, progressive disease (patients): 9
  PR, partial response (patients): 5
Aggressive NHL [4]; [20]
  CR, complete response (patients): 0
  ORR, overall response rate: 33%
  PD, progressive disease (patients): 1
  PR, partial response (patients): 1
Aggressive NHL [4]; favorable values for both tumor burden and time from rituximab (N=19)
  ORR: 53%
Aggressive NHL [4]; tumor burden <50 cm^2
  response to lenalidomide: 33%
Aggressive NHL [4]; tumor burden ≧50 cm^2
  response to lenalidomide: 14%
Aggressive NHL [4]; unfavorable values (N=29)
  ORR: 10%
Aggressive NHL [4]; ≧230 days from rituximab to lenalidomide treatment
  response to lenalidomide: 46%
